Laboratory results as given in patent publication US8748496B2, “Methods of treatment of hyperuricemia and associated disease states” (Elan Pharmaceuticals, Inc., priority 2008, dated 2014).

Test system: uric acid levels
Assay: Multiple ascending dose study every twelve hours for seven days, uric acid in healthy elderly subjects
Assay type: in vivo, human
Conditions: for uric acid, Mean: N=6
Experimental: A single-center, randomized, placebo-controlled, multiple ascending dose study evaluating a scyllo-inositol formulation was conducted in healthy elderly subjects. Approximately 32 healthy subjects (men and women) participated in […] consisting of 8 subjects each (i.e., 6 on active drug and 2 on placebo). Subjects received drug twice daily (BID) (every 12 hours) for 7 days. The dosage levels of the scyllo-inositol were 200 mg BID (400 mg/d total), 700 mg BID (1400 mg/d total), 1500 mg BID (3000 mg/d total) and 3000 mg BID (6000 mg/d total) given every 12 hours. Blood samples were collected from each subject on days 0, 4, 7, and 12.
Scyllo-inositol 200 and 500 mg capsules were bovine spongiform encephalopathy (BSE)/transmissible spongiform encephalopathy (TSE)-free soft gelatin, white, opaque capsules and no excipient was used in the finished product. Capsules were supplied in 60-mL, oblong, white pharmaceutical high density polyethylene (HDPE) bottles with white caps. Each 60-mL bottle contained 30 capsules of 200 or 500 mg scyllo-inositol.
The mean change from baseline to day 7 versus placebo was used to determine statistical significance. […] The ANCOVA looked at the change of uric acid levels in controls from starting levels of uric acid; the software used was SAS 9.1.3. […] The point estimate of 0.85 is a population parameter in dosed subjects.

[1] = 200 mg BID oral 7 days group, Baseline (Day 0)
[2] = 700 mg BID oral 7 days group, Baseline (Day 0)
[3] = 1500 mg BID oral 7 days group, Baseline (Day 0)
[4] = 1500 mg BID oral 7 days, Day 12
[5] = 3000 mg BID oral 7 days group, Baseline (Day 0)
[6] = 3000 mg BID oral 7 days, Day 12

O[C@H]1[C@H](O)[C@@H](O)[C@H](O)[C@@H](O)[C@@H]1O [scyllo-inositol, 1,2,3,4,5,6-cyclohexanehexyl, (1alpha,2beta,3alpha,4beta,5alpha,6beta)]
uric acid, Max [1]: 458 micromole per liter
uric acid, Median [1]: 318.2 micromole per liter
uric acid, Min [1]: 149 micromole per liter
uric acid, Mean [1]: 316.2 micromole per liter
uric acid, Max (200 mg BID oral 7 days, Day 4): 410 micromole per liter
uric acid, Max Change from Baseline (200 mg BID oral 7 days, Day 4): 54 micromole per liter
uric acid, Mean Change from Baseline (200 mg BID oral 7 days, Day 4): −7.9 micromole per liter
uric acid, Median (200 mg BID oral 7 days, Day 4): 330.1 micromole per liter
uric acid, Median Change from Baseline (200 mg BID oral 7 days, Day 4): −11.9 micromole per liter
uric acid, Min (200 mg BID oral 7 days, Day 4): 143 micromole per liter
uric acid, Min Change from Baseline (200 mg BID oral 7 days, Day 4): −48 micromole per liter
uric acid, Mean (200 mg BID oral 7 days, Day 4): 308.3 micromole per liter
uric acid, Max (200 mg BID oral 7 days, Day 7): 387 micromole per liter
uric acid, Max Change from Baseline (200 mg BID oral 7 days, Day 7): 18 micromole per liter
uric acid, Mean Change from Baseline (200 mg BID oral 7 days, Day 7): −25.8 micromole per liter
uric acid, Median (200 mg BID oral 7 days, Day 7): 333.1 micromole per liter
uric acid, Median Change from Baseline (200 mg BID oral 7 days, Day 7): −17.8 micromole per liter
uric acid, Min (200 mg BID oral 7 days, Day 7): 143 micromole per liter
uric acid, Min Change from Baseline (200 mg BID oral 7 days, Day 7): −77 micromole per liter
uric acid, Mean (200 mg BID oral 7 days, Day 7): 290.5 micromole per liter
uric acid, Max (200 mg BID oral 7 days, Day 12): 476 micromole per liter
uric acid, Max Change from Baseline (200 mg BID oral 7 days, Day 12): 59 micromole per liter
uric acid, Median (200 mg BID oral 7 days, Day 12): 368.8 micromole per liter
uric acid, Median Change from Baseline (200 mg BID oral 7 days, Day 12): 26.8 micromole per liter
uric acid, Min (200 mg BID oral 7 days, Day 12): 184 micromole per liter
uric acid, Min Change from Baseline (200 mg BID oral 7 days, Day 12): −12 micromole per liter
uric acid, Mean (200 mg BID oral 7 days, Day 12): 342.0 micromole per liter
uric acid, Max [2]: 410 micromole per liter
uric acid, Median [2]: 258.7 micromole per liter
uric acid, Min [2]: 161 micromole per liter
uric acid, Mean [2]: 269.6 micromole per liter
uric acid, Max (700 mg BID oral 7 days, Day 4): 351 micromole per liter
uric acid, Max Change from Baseline (700 mg BID oral 7 days, Day 4): 0 micromole per liter
uric acid, Mean Change from Baseline (700 mg BID oral 7 days, Day 4): −51.5 micromole per liter
uric acid, Median (700 mg BID oral 7 days, Day 4): 175.5 micromole per liter
uric acid, Median Change from Baseline (700 mg BID oral 7 days, Day 4): −62.5 micromole per liter
uric acid, Min (700 mg BID oral 7 days, Day 4): 143 micromole per liter
uric acid, Min Change from Baseline (700 mg BID oral 7 days, Day 4): −101 micromole per liter
uric acid, Mean (700 mg BID oral 7 days, Day 4): 218.1 micromole per liter
uric acid, Max (700 mg BID oral 7 days, Day 7): 309 micromole per liter
uric acid, Max Change from Baseline (700 mg BID oral 7 days, Day 7): −12 micromole per liter
uric acid, Mean Change from Baseline (700 mg BID oral 7 days, Day 7): −70.4 micromole per liter
uric acid, Median (700 mg BID oral 7 days, Day 7): 169.5 micromole per liter
uric acid, Median Change from Baseline (700 mg BID oral 7 days, Day 7): −83.3 micromole per liter
uric acid, Min (700 mg BID oral 7 days, Day 7): 125 micromole per liter
uric acid, Min Change from Baseline (700 mg BID oral 7 days, Day 7): −107 micromole per liter
uric acid, Mean (700 mg BID oral 7 days, Day 7): 199.3 micromole per liter
uric acid, Max (700 mg BID oral 7 days, Day 12): 410 micromole per liter
uric acid, Max Change from Baseline (700 mg BID oral 7 days, Day 12): 30 micromole per liter
uric acid, Mean Change from Baseline (700 mg BID oral 7 days, Day 12): −1.0 micromole per liter
uric acid, Median (700 mg BID oral 7 days, Day 12): 237.9 micromole per liter
uric acid, Median Change from Baseline (700 mg BID oral 7 days, Day 12): 3.0 micromole per liter
uric acid, Min (700 mg BID oral 7 days, Day 12): 167 micromole per liter
uric acid, Min Change from Baseline (700 mg BID oral 7 days, Day 12): −54 micromole per liter
uric acid, Mean (700 mg BID oral 7 days, Day 12): 268.7 micromole per liter
uric acid, Max [3]: 434 micromole per liter
uric acid, Median [3]: 279.6 micromole per liter
uric acid, Min [3]: 220 micromole per liter
uric acid, Mean [3]: 303.3 micromole per liter
uric acid, Max (1500 mg BID oral 7 days, Day 4): 291 micromole per liter
uric acid, Max Change from Baseline (1500 mg BID oral 7 days, Day 4): 12 micromole per liter
uric acid, Mean Change from Baseline (1500 mg BID oral 7 days, Day 4): −70.4 micromole per liter
uric acid, Median (1500 mg BID oral 7 days, Day 4): 237.9 micromole per liter
uric acid, Median Change from Baseline (1500 mg BID oral 7 days, Day 4): −71.4 micromole per liter
uric acid, Min (1500 mg BID oral 7 days, Day 4): 155 micromole per liter
uric acid, Min Change from Baseline (1500 mg BID oral 7 days, Day 4): −143 micromole per liter
uric acid, Mean (1500 mg BID oral 7 days, Day 4): 233.0 micromole per liter
uric acid, Max (1500 mg BID oral 7 days, Day 7): 256 micromole per liter
uric acid, Max Change from Baseline (1500 mg BID oral 7 days, Day 7): −24 micromole per liter
uric acid, Mean Change from Baseline (1500 mg BID oral 7 days, Day 7): −88.2 micromole per liter
uric acid, Median (1500 mg BID oral 7 days, Day 7): 229.0 micromole per liter
uric acid, Median Change from Baseline (1500 mg BID oral 7 days, Day 7): −77.3 micromole per liter
uric acid, Min (1500 mg BID oral 7 days, Day 7): 155 micromole per liter
uric acid, Min Change from Baseline (1500 mg BID oral 7 days, Day 7): −196 micromole per liter
uric acid, Mean (1500 mg BID oral 7 days, Day 7): 215.1 micromole per liter
uric acid, Max [4]: 399 micromole per liter
uric acid, Max Change from Baseline [4]: 18 micromole per liter
uric acid, Mean Change from Baseline [4]: −27.8 micromole per liter
uric acid, Median [4]: 279.6 micromole per liter
uric acid, Median Change from Baseline [4]: −29.7 micromole per liter
uric acid, Min [4]: 196 micromole per liter
uric acid, Min Change from Baseline [4]: −65 micromole per liter
uric acid, Mean [4]: 275.6 micromole per liter
uric acid, Max [5]: 363 micromole per liter
uric acid, Median [5]: 300.4 micromole per liter
uric acid, Min [5]: 226 micromole per liter
uric acid, Mean [5]: 299.4 micromole per liter
uric acid, Max (3000 mg BID oral 7 days, Day 4): 262 micromole per liter
uric acid, Max Change from Baseline (3000 mg BID oral 7 days, Day 4): −59 micromole per liter
uric acid, Mean Change from Baseline (3000 mg BID oral 7 days, Day 4): −83.3 micromole per liter
uric acid, Median (3000 mg BID oral 7 days, Day 4): 226.0 micromole per liter
uric acid, Median Change from Baseline (3000 mg BID oral 7 days, Day 4): −83.3 micromole per liter
uric acid, Min (3000 mg BID oral 7 days, Day 4): 161 micromole per liter
uric acid, Min Change from Baseline (3000 mg BID oral 7 days, Day 4): −107 micromole per liter
uric acid, Mean (3000 mg BID oral 7 days, Day 4): 216.1 micromole per liter
uric acid, Max (3000 mg BID oral 7 days, Day 7): 268 micromole per liter
uric acid, Max Change from Baseline (3000 mg BID oral 7 days, Day 7): −71 micromole per liter
uric acid, Mean Change from Baseline (3000 mg BID oral 7 days, Day 7): −85.3 micromole per liter
uric acid, Median (3000 mg BID oral 7 days, Day 7): 214.1 micromole per liter
uric acid, Median Change from Baseline (3000 mg BID oral 7 days, Day 7): −74.4 micromole per liter
uric acid, Min (3000 mg BID oral 7 days, Day 7): 149 micromole per liter
uric acid, Min Change from Baseline (3000 mg BID oral 7 days, Day 7): −131 micromole per liter
uric acid, Mean (3000 mg BID oral 7 days, Day 7): 214.1 micromole per liter
uric acid, Max [6]: 345 micromole per liter
uric acid, Max Change from Baseline [6]: 18 micromole per liter
uric acid, Mean Change from Baseline [6]: −29.7 micromole per liter
uric acid, Median [6]: 270.6 micromole per liter
uric acid, Median Change from Baseline [6]: −23.8 micromole per liter
uric acid, Min [6]: 208 micromole per liter
uric acid, Min Change from Baseline [6]: −83 micromole per liter
uric acid, Mean [6]: 269.6 micromole per liter
decreases from baseline in uric acid, dose-response (200-3000 mg BID oral 7 days, Day 7): a dose-response effect was not as apparent
mean uric acid levels, relation to dose (200-3000 mg BID oral 7 days, Days 4 and 7, Day 12): dose-related decrease in mean uric acid levels was observed at Days 4 and 7, which partially resolved by Day 12
mean difference (PLC-TRT) in change from baseline to day 7, point estimate (scyllo-inositol treated versus placebo, Day 7, ANCOVA): 0.85
